Among the data in article PMC10314895, “Targeted protein degradation reveals BET bromodomains as the cellular target of Hedgehog pathway inhibitor-1” (Nature Communications, 2023) are Kd values, retold here.

Common to all, as to format: binding
Test [1] concerns the target T1, BRD2 (Homo sapiens, UniProt P25440). The test is described as follows: BromoKd affinity assay (Eurofins Discovery). Details: second bromodomain BD2, BRD2(2).
Target sequence in this assay (P25440 344-453 limits assumed): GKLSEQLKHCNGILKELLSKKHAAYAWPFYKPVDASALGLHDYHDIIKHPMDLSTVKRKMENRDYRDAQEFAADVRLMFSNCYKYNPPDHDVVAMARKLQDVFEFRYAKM
In test [2] the target is T2, BRD4 (Homo sapiens, UniProt O60885). In words: BromoKd affinity assay (Eurofins Discovery).
Test [3] deals with T3, BRD3 (Homo sapiens, UniProt Q15059). In words: BromoKd affinity assay (Eurofins Discovery).
T3 sequence (Q15059 2-726): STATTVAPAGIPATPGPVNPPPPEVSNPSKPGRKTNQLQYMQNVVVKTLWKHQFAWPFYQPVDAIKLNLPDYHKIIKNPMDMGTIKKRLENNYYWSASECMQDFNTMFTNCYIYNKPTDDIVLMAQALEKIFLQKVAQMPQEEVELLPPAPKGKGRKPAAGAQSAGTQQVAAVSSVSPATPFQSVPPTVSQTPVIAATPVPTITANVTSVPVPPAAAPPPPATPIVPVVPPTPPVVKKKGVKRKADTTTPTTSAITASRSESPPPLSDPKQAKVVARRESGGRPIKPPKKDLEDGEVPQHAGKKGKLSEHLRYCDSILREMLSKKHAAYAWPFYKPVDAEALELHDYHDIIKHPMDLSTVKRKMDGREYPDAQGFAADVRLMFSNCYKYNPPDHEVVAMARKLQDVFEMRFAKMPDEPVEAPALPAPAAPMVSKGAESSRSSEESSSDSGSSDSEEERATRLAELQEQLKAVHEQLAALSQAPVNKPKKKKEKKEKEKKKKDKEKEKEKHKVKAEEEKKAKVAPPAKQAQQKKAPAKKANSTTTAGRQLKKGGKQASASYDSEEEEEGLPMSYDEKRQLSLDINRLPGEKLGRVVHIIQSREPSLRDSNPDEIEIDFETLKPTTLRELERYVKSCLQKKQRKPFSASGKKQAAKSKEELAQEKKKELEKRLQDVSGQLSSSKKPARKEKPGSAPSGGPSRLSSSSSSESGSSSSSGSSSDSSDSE
Test [4] concerns the target T3, BRD3. In words: BromoKd affinity assay (Eurofins Discovery); cellular degradation competed by HPI-1.
The target of test [5] is T2, BRD4. Described as above.
Test [6] concerns the target T1, BRD2. Described as above.
Target sequence in this assay (P25440 whole entry): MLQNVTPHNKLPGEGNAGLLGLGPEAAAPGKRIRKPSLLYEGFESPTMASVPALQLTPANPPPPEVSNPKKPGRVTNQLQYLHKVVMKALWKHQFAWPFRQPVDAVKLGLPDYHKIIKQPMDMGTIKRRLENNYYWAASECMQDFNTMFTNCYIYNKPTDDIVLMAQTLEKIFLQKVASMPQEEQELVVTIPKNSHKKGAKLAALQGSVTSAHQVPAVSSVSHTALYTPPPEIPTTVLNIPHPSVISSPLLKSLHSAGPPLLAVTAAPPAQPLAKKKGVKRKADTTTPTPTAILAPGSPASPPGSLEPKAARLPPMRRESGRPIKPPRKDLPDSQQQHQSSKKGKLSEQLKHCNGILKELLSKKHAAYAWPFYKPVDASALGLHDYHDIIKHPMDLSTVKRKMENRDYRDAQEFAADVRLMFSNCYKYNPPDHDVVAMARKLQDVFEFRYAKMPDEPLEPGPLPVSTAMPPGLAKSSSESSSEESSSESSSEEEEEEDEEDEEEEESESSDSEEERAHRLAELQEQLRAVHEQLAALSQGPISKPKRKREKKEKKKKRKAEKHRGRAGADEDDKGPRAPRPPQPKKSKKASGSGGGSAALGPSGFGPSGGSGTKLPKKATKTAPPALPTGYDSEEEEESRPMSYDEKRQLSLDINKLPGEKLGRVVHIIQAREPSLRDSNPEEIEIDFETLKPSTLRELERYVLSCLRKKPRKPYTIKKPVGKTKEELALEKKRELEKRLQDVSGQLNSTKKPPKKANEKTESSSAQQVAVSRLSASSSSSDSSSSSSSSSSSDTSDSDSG

Turning to `COCCOC(=O)C1=C(C)NC2=C(C(=O)CC(c3ccccc3OC)C2)C1c1cccc(O)c1` (stereo not drawn) [HPI-1], the Kd (commonly a measure of binding affinity in units of concentration) in test [1] was 17 nM; in test [2], approximately 15 nM; in test [3], approximately 15 nM.
As to `COCCOC(=O)C1=C(C)NC2=C(C(=O)CC(c3ccccc3OC)C2)C1c1cccc(OCc2cn(CCCCCCOc3cccc4c3C(=O)N(C3CCC(=O)NC3=O)C4=O)nn2)c1` (stereo not drawn) [HPP-9], the Kd in test [4], in test [5] and in test [6] was approximately 200 nM each time.
